Measured values from patent publication US8957016B2, “Tumor activated prodrugs” (Genspera, Inc., priority 2006, dated 2015).
Like-named read-outs stand apart in the source and are kept apart here. *1 amine or outer side, *2 acyl side, *3 side chain or, on linkers, in order; H or OH if unused. Where a SMILES comes first, the peptide text is derived from it. [ ]: non-standard residue; d: D form. The star is where a group is joined. AMC = Cc1cc(=O)oc2cc(N*)ccc12; Morpholide = C1CN(*)CCO1; CO = O=C([*:1])[*:2]

Columns and labels:
[1] = molecular target: PSA (Homo sapiens, UniProt P07288); experiment: Kinetic parameters of fluorescent (AMC) PSA peptide substrates, Lineweaver Burke plots; assay type: biochemical; settings: PSA 10 μg/ml, AMC-coupled peptide
Sequence of PSA (P07288 25-261): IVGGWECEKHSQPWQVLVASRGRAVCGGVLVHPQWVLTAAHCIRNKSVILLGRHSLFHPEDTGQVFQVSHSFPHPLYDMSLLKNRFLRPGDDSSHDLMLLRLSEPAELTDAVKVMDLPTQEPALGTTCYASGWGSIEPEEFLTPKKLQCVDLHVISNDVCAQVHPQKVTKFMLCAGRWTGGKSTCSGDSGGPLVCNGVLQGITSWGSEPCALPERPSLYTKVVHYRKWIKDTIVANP
Procedure: These peptides were then incubated with PSA (10 μg/ml) and Michaelis Menton kinetic parameters determined using Lineweaver Burke plots, Table 3. In this study, Kcat/Km ratios were calculated in order to rank peptides. Newly synthesized peptides contained an acetyl protecting group (Ac) at the amino terminus, whereas the test peptide contained the protecting group morpholinylcarbonyl (Mu).

[2] = molecular target: sarcoplasmic reticulum (SR) and endoplasmic reticulum (ER) Ca2+-ATPase (SERCA) pump; settings: read-out: apparent dissociation constant; cited from earlier work

## CC(=O)NCC(=O)N[C@@H](CCCCN)C(=O)N[C@@H](CO)C(=O)N[C@@H](CCC(N)=O)C(=O)N[C@@H](Cc1ccc(O)cc1)C(=O)N[C@@H](CCC(N)=O)C(=O)Nc1ccc2c(C)cc(=O)oc2c1 [Ac-GKSQYQ-AMC] (Ac-GKSQYQ-{AMC})
[1]
  kcat: 0.09 s⁻¹
[1]; read-out: Km
  Km: 343 µM

## CC(=O)NCC(=O)N[C@@H](CO)C(=O)N[C@@H](CO)C(=O)N[C@@H](CCCCN)C(=O)N[C@@H](Cc1ccccc1)C(=O)N[C@@H](CCC(N)=O)C(=O)Nc1ccc2c(C)cc(=O)oc2c1 [Ac-GSSKFQ-AMC] (Ac-GSSKFQ-{AMC})
[1]
  Km: 666 µM
  kcat: 0.057 s⁻¹

## CC(=O)NCC(=O)N[C@@H](CO)C(=O)N[C@@H](CO)C(=O)N[C@@H](CCCCN)C(=O)N[C@@H](Cc1ccc(O)cc1)C(=O)N[C@@H](CCC(N)=O)C(=O)Nc1ccc2c(C)cc(=O)oc2c1 [Ac-GSSKYQ-AMC] (Ac-GSSKYQ-{AMC})
[1]
  Km: 500 µM
  kcat: 0.113 s⁻¹

## CC(=O)NCC(=O)N[C@H](CO)C(=O)N[C@@H](C)C(=O)N[C@@H](CCCCN)C(=O)N[C@@H](Cc1ccc(O)cc1)C(=O)N[C@@H](CCC(N)=O)C(=O)Nc1ccc2c(C)cc(=O)oc2c1 [Ac-GsAKYQ-AMC] (Ac-G[dS]AKYQ-{AMC})
[1]
  Km: 653 µM
  kcat: 0.143 s⁻¹

## Cc1cc(=O)oc2cc(NC(=O)[C@H](CCC(N)=O)NC(=O)[C@H](CC(C)C)NC(=O)[C@H](CCCCN)NC(=O)[C@H](CO)NC(=O)[C@H](CO)NC(=O)[C@H](Cc3c[nH]cn3)NC(=O)N3CCOCC3)ccc12 [Mu-HSSKLQ-AMC, reference compound] ({Morpholide-CO}-HSSKLQ-{AMC})
[1]
  kcat: 0.011 s⁻¹

## C/C=C(/C)C(=O)O[C@H]1C(C)=C2[C@H]([C@@H]1OC(=O)CCCCCCC)[C@@](C)(OC(C)=O)C[C@H](OC(=O)CCC)[C@@]1(O)[C@H]2OC(=O)[C@@]1(C)O [Thapsigargin]
[2]
  Kd: ≤ 2.2 pM
